# Measured values from US20230085307A1, “PYRIDAZINONE COMPOUND AND HERBICIDE” (NISSAN CHEMICAL CORPORATION, priority 2019, published 2023).
# Tested on: Japanese bulrush
# Assay: Test Example 2: herbicidal activity, application during weed generation under submerged conditions (Table 17, symbol B)
# Format: in vivo, Japanese bulrush (Schoenoplectus juncoides)
# Conditions: AAH 320 g/ha; application during weed generation, submerged conditions
# Summary of the method: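 Herbicide emulsion, diluted with water to the chosen amount, is applied onto 4 cm floodwater over alluvial soil where the weeds were co-sown and raised at 25–30° C. Application timing: 1–2 leaves. Assessment: three weeks afterwards.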
row,SMILES,"herbicidal effect rating, B: Japanese bulrush"
1,COCCOCOc1c(C)nn(C)c(=O)c1-c1c(-c2ccc(OCCC3OCCO3)cc2)sc2ccccc12 [1-224],3 (Herbicidal rate of 40% or more and less than 70%)
2,C#CCSCc1ccc(-c2sc3ccccc3c2-c2c(O)c(C)nn(C)c2=O)cc1 [1-247],0 (Herbicidal rate of 5% or less (almost no effect))
3,Cc1nn(C)c(=O)c(-c2c(-c3ccc(F)cc3)sc3ccc(F)cc23)c1O [2-001],2 (Herbicidal rate of 20% or more and less than 40%)

# Tested on: southern crabgrass
# Assay: Test Example 5: herbicidal effect by foliage application, plastic box (Table 20, symbol F)
# Format: in vivo, southern crabgrass (Digitaria ciliaris)
# Conditions: foliage application, 320 g/ha, 3 weeks after application
# Summary of the method: (§1)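 Plants sown in sterilized diluvial soil and grown 14 days in a greenhouse at 25° C to 30° C, then sprayed on the foliage with the compound's emulsion diluted in water to a predetermined herbicide amount. Injury to weeds and crops scored three weeks after application on a visual rating scale.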
row,SMILES,effect on southern crabgrass (F)
1,COCCOCOc1c(C)nn(C)c(=O)c1-c1c(-c2ccc(OCCC3OCCO3)cc2)sc2ccccc12 [1-224],3 (Herbicidal rate of 40% or more and less than 70%)
2,C#CCSCc1ccc(-c2sc3ccccc3c2-c2c(O)c(C)nn(C)c2=O)cc1 [1-247],2 (Herbicidal rate of 20% or more and less than 40%)
3,Cc1nn(C)c(=O)c(-c2c(-c3ccc(F)cc3)sc3ccc(F)cc23)c1O [2-001],5 (Herbicidal rate of 90% or more (almost completely withered))

# Tested on: blackgrass
# Assay: Test Example 4: herbicidal effect by soil treatment (Table 19, symbol J)
# Format: in vivo, blackgrass (Alopecurus myosuroides)
# Conditions: AAH 320 g/ha
# Summary of the method: (§2)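 Three weeks of greenhouse growth at 25° C. to 30° C. followed a uniform surface spray of water-diluted emulsion at a predetermined herbicide amount. Seeds had been sown beforehand under about 1.5 cm of sterilized diluvial soil. Grading followed criteria set out in an earlier test.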
row,SMILES,"J: blackgrass, herbicidal effect rating"
1,COCCOCOc1c(C)nn(C)c(=O)c1-c1c(-c2ccc(OCCC3OCCO3)cc2)sc2ccccc12 [1-224],0 (Herbicidal rate of 5% or less (almost no effect))
2,C#CCSCc1ccc(-c2sc3ccccc3c2-c2c(O)c(C)nn(C)c2=O)cc1 [1-247],0 (Herbicidal rate of 5% or less (almost no effect))
3,Cc1nn(C)c(=O)c(-c2c(-c3ccc(F)cc3)sc3ccc(F)cc23)c1O [2-001],2 (Herbicidal rate of 20% or more and less than 40%)

# Tested on: oval-leafed pondweed
# Assay: Test Example 1: herbicidal activity, application before weed generation under submerged conditions (Table 16, symbol C)
# Format: in vivo, oval-leafed pondweed (Monochoria vaginalis)
# Conditions: 320 g/ha applied herbicide
# Summary of the method: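 Emulsion formulation, water-diluted to set dose, was put onto the flooded surface (4 cm depth, alluvial soil) the same day weeds were sown and 2.5-leaf rice transplanted. After 3 weeks at 25-30 °C under glass, each species was rated 0 (≤5% kill) to 5 (≥90% kill).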
row,SMILES,Herbicidal effect on C: oval-leafed pondweed (grade 0-5)
1,COCCOCOc1c(C)nn(C)c(=O)c1-c1c(-c2ccc(OCCC3OCCO3)cc2)sc2ccccc12 [1-224],3 (Herbicidal rate of 40% or more and less than 70%)
2,C#CCSCc1ccc(-c2sc3ccccc3c2-c2c(O)c(C)nn(C)c2=O)cc1 [1-247],0 (Herbicidal rate of 5% or less (almost no effect))
3,Cc1nn(C)c(=O)c(-c2c(-c3ccc(F)cc3)sc3ccc(F)cc23)c1O [2-001],1 (Herbicidal rate of 5% or more and less than 20%)

# Tested on: windgrass
# Assay: Test Example 5: herbicidal effect by foliage application, plastic box (Table 20, symbol L)
# Format: in vivo, windgrass (Apera spica-venti)
# Conditions: foliage application, 320 g/ha, 3 weeks after application
# Summary of the method: as §1
row,SMILES,effect on windgrass (L)
1,COCCOCOc1c(C)nn(C)c(=O)c1-c1c(-c2ccc(OCCC3OCCO3)cc2)sc2ccccc12 [1-224],0 (Herbicidal rate of 5% or less (almost no effect))
2,C#CCSCc1ccc(-c2sc3ccccc3c2-c2c(O)c(C)nn(C)c2=O)cc1 [1-247],0 (Herbicidal rate of 5% or less (almost no effect))
3,Cc1nn(C)c(=O)c(-c2c(-c3ccc(F)cc3)sc3ccc(F)cc23)c1O [2-001],4 (Herbicidal rate of 70% or more and less than 90%)

# Tested on: lambsquarters
# Assay: Test Example 4: herbicidal effect by soil treatment (Table 19, symbol O)
# Format: in vivo, lambsquarters (Chenopodium album)
# Conditions: AAH 320 g/ha
# Summary of the method: as §2
row,SMILES,"O: lambsquarters, herbicidal effect rating"
1,COCCOCOc1c(C)nn(C)c(=O)c1-c1c(-c2ccc(OCCC3OCCO3)cc2)sc2ccccc12 [1-224],3 (Herbicidal rate of 40% or more and less than 70%)
2,C#CCSCc1ccc(-c2sc3ccccc3c2-c2c(O)c(C)nn(C)c2=O)cc1 [1-247],3 (Herbicidal rate of 40% or more and less than 70%)
3,Cc1nn(C)c(=O)c(-c2c(-c3ccc(F)cc3)sc3ccc(F)cc23)c1O [2-001],5 (Herbicidal rate of 90% or more (almost completely withered))

# Tested on: velvetleaf
# Assay: Test Example 4: herbicidal effect by soil treatment (Table 19, symbol M)
# Format: in vivo, velvetleaf (Abutilon theophrasti)
# Conditions: AAH 320 g/ha
# Summary of the method: as §2
row,SMILES,"M: velvetleaf, herbicidal effect rating"
1,COCCOCOc1c(C)nn(C)c(=O)c1-c1c(-c2ccc(OCCC3OCCO3)cc2)sc2ccccc12 [1-224],5 (Herbicidal rate of 90% or more (almost completely withered))
2,C#CCSCc1ccc(-c2sc3ccccc3c2-c2c(O)c(C)nn(C)c2=O)cc1 [1-247],0 (Herbicidal rate of 5% or less (almost no effect))
3,Cc1nn(C)c(=O)c(-c2c(-c3ccc(F)cc3)sc3ccc(F)cc23)c1O [2-001],5 (Herbicidal rate of 90% or more (almost completely withered))

# Tested on: chickweed
# Assay: Test Example 4: herbicidal effect by soil treatment (Table 19, symbol P)
# Format: in vivo, common chickweed (Stellaria media)
# Conditions: AAH 320 g/ha
# Summary of the method: as §2
row,SMILES,"P: chickweed, herbicidal effect rating"
1,COCCOCOc1c(C)nn(C)c(=O)c1-c1c(-c2ccc(OCCC3OCCO3)cc2)sc2ccccc12 [1-224],0 (Herbicidal rate of 5% or less (almost no effect))
2,C#CCSCc1ccc(-c2sc3ccccc3c2-c2c(O)c(C)nn(C)c2=O)cc1 [1-247],4 (Herbicidal rate of 70% or more and less than 90%)
3,Cc1nn(C)c(=O)c(-c2c(-c3ccc(F)cc3)sc3ccc(F)cc23)c1O [2-001],4 (Herbicidal rate of 70% or more and less than 90%)

# Tested on: velvetleaf
# Assay: Test Example 5: herbicidal effect by foliage application, plastic box (Table 20, symbol M)
# Format: in vivo, velvetleaf (Abutilon theophrasti)
# Conditions: foliage application, 320 g/ha, 3 weeks after application
# Summary of the method: as §1
row,SMILES,effect on velvetleaf (M)
1,COCCOCOc1c(C)nn(C)c(=O)c1-c1c(-c2ccc(OCCC3OCCO3)cc2)sc2ccccc12 [1-224],5 (Herbicidal rate of 90% or more (almost completely withered))
2,C#CCSCc1ccc(-c2sc3ccccc3c2-c2c(O)c(C)nn(C)c2=O)cc1 [1-247],5 (Herbicidal rate of 90% or more (almost completely withered))
3,Cc1nn(C)c(=O)c(-c2c(-c3ccc(F)cc3)sc3ccc(F)cc23)c1O [2-001],5 (Herbicidal rate of 90% or more (almost completely withered))

# Tested on: persian speedwell
# Assay: Test Example 5: herbicidal effect by foliage application, plastic box (Table 20, symbol R)
# Format: in vivo, Persian speedwell (Veronica persica)
# Conditions: foliage application, 320 g/ha, 3 weeks after application
# Summary of the method: as §1
row,SMILES,effect on persian speedwell (R)
1,COCCOCOc1c(C)nn(C)c(=O)c1-c1c(-c2ccc(OCCC3OCCO3)cc2)sc2ccccc12 [1-224],5 (Herbicidal rate of 90% or more (almost completely withered))
2,C#CCSCc1ccc(-c2sc3ccccc3c2-c2c(O)c(C)nn(C)c2=O)cc1 [1-247],5 (Herbicidal rate of 90% or more (almost completely withered))
3,Cc1nn(C)c(=O)c(-c2c(-c3ccc(F)cc3)sc3ccc(F)cc23)c1O [2-001],5 (Herbicidal rate of 90% or more (almost completely withered))

# Tested on: lambsquarters
# Assay: Test Example 5: herbicidal effect by foliage application, plastic box (Table 20, symbol O)
# Format: in vivo, lambsquarters (Chenopodium album)
# Conditions: foliage application, 320 g/ha, 3 weeks after application
# Summary of the method: as §1
row,SMILES,effect on lambsquarters (O)
1,COCCOCOc1c(C)nn(C)c(=O)c1-c1c(-c2ccc(OCCC3OCCO3)cc2)sc2ccccc12 [1-224],4 (Herbicidal rate of 70% or more and less than 90%)
2,C#CCSCc1ccc(-c2sc3ccccc3c2-c2c(O)c(C)nn(C)c2=O)cc1 [1-247],5 (Herbicidal rate of 90% or more (almost completely withered))
3,Cc1nn(C)c(=O)c(-c2c(-c3ccc(F)cc3)sc3ccc(F)cc23)c1O [2-001],5 (Herbicidal rate of 90% or more (almost completely withered))

# Tested on: wild oat
# Assay: Test Example 4: herbicidal effect by soil treatment (Table 19, symbol I)
# Format: in vivo, wild oat (Avena fatua)
# Conditions: AAH 320 g/ha
# Summary of the method: as §2
row,SMILES,"I: wild oat, herbicidal effect rating"
1,COCCOCOc1c(C)nn(C)c(=O)c1-c1c(-c2ccc(OCCC3OCCO3)cc2)sc2ccccc12 [1-224],0 (Herbicidal rate of 5% or less (almost no effect))
2,C#CCSCc1ccc(-c2sc3ccccc3c2-c2c(O)c(C)nn(C)c2=O)cc1 [1-247],0 (Herbicidal rate of 5% or less (almost no effect))
3,Cc1nn(C)c(=O)c(-c2c(-c3ccc(F)cc3)sc3ccc(F)cc23)c1O [2-001],3 (Herbicidal rate of 40% or more and less than 70%)

# Tested on: green foxtail
# Assay: Test Example 4: herbicidal effect by soil treatment (Table 19, symbol G)
# Format: in vivo, green foxtail (Setaria viridis)
# Conditions: AAH 320 g/ha
# Summary of the method: as §2
row,SMILES,"G: green foxtail, herbicidal effect rating"
1,COCCOCOc1c(C)nn(C)c(=O)c1-c1c(-c2ccc(OCCC3OCCO3)cc2)sc2ccccc12 [1-224],3 (Herbicidal rate of 40% or more and less than 70%)
2,C#CCSCc1ccc(-c2sc3ccccc3c2-c2c(O)c(C)nn(C)c2=O)cc1 [1-247],0 (Herbicidal rate of 5% or less (almost no effect))
3,Cc1nn(C)c(=O)c(-c2c(-c3ccc(F)cc3)sc3ccc(F)cc23)c1O [2-001],4 (Herbicidal rate of 70% or more and less than 90%)

# Tested on: southern crabgrass
# Assay: Test Example 4: herbicidal effect by soil treatment (Table 19, symbol F)
# Format: in vivo, southern crabgrass (Digitaria ciliaris)
# Conditions: AAH 320 g/ha
# Summary of the method: as §2
row,SMILES,"F: southern crabgrass, herbicidal effect rating"
1,COCCOCOc1c(C)nn(C)c(=O)c1-c1c(-c2ccc(OCCC3OCCO3)cc2)sc2ccccc12 [1-224],2 (Herbicidal rate of 20% or more and less than 40%)
2,C#CCSCc1ccc(-c2sc3ccccc3c2-c2c(O)c(C)nn(C)c2=O)cc1 [1-247],0 (Herbicidal rate of 5% or less (almost no effect))
3,Cc1nn(C)c(=O)c(-c2c(-c3ccc(F)cc3)sc3ccc(F)cc23)c1O [2-001],5 (Herbicidal rate of 90% or more (almost completely withered))

# Tested on: persian speedwell
# Assay: Test Example 4: herbicidal effect by soil treatment (Table 19, symbol R)
# Format: in vivo, Persian speedwell (Veronica persica)
# Conditions: AAH 320 g/ha
# Summary of the method: as §2
row,SMILES,"R: persian speedwell, herbicidal effect rating"
1,COCCOCOc1c(C)nn(C)c(=O)c1-c1c(-c2ccc(OCCC3OCCO3)cc2)sc2ccccc12 [1-224],3 (Herbicidal rate of 40% or more and less than 70%)
2,C#CCSCc1ccc(-c2sc3ccccc3c2-c2c(O)c(C)nn(C)c2=O)cc1 [1-247],4 (Herbicidal rate of 70% or more and less than 90%)
3,Cc1nn(C)c(=O)c(-c2c(-c3ccc(F)cc3)sc3ccc(F)cc23)c1O [2-001],5 (Herbicidal rate of 90% or more (almost completely withered))

# Tested on: barnyard grass
# Assay: Test Example 4: herbicidal effect by soil treatment (Table 19, symbol H)
# Format: in vivo, barnyard grass (Echinochloa crus-galli)
# Conditions: AAH 320 g/ha
# Summary of the method: as §2
row,SMILES,"H: barnyard grass, herbicidal effect rating"
1,COCCOCOc1c(C)nn(C)c(=O)c1-c1c(-c2ccc(OCCC3OCCO3)cc2)sc2ccccc12 [1-224],1 (Herbicidal rate of 5% or more and less than 20%)
2,C#CCSCc1ccc(-c2sc3ccccc3c2-c2c(O)c(C)nn(C)c2=O)cc1 [1-247],0 (Herbicidal rate of 5% or less (almost no effect))
3,Cc1nn(C)c(=O)c(-c2c(-c3ccc(F)cc3)sc3ccc(F)cc23)c1O [2-001],3 (Herbicidal rate of 40% or more and less than 70%)
